The text below walks through data of article PMC9919513, “A Practical Approach to Bicyclic Carbamoyl Pyridones with Application to the Synthesis of HIV-1 Integrase Strand Transfer Inhibitors” (Molecules, 2023).

Data set [1] relates to HIV-1 vectors that carry WT IN. Nature of the data set: Single-round HIV-1 replication antiviral assay, wild-type IN. Format: cell-based. The conditions noted are these: for Ratio of the antiviral potencies after and before hydrogenation (WT): EC50 of saturated 7 over EC50 of unsaturated 6, WT IN; for EC50: Human immunodeficiency virus 1, HOS, 48 h, read-out: EC50, antiviral potency, WT IN, VSV-g-pseudotyped HIV-1 luciferase vector with WT IN, HOS cells, 48 h. The protocol: The bicyclic metal chelating carbamoyl pyridone moiety is common to second-generation tricyclic INSTIs (3, 4, and 5, Figure 1). Analogs of the current study are simplified analogs that lack a third ring. […] The halogen substitution pattern of the benzylamide moiety can affect inhibitory potencies of INSTIs. We determined the antiviral potencies of our compounds in single round HIV-1 replication assays using viral constructs with wild-type IN [31]. Cytotoxicities were determined as previously described. […] In general, the potencies of bicyclic analogs 6 having an unsaturated bond at the C4 position were insensitive to differences in N-methyl substituents. […] Analogs 6g and 6h represent simplified analogs of DTG (3) and CAB (5), respectively, in which the third ring (C-ring) is opened and having doble bond in B-ring, but lacking α-methyl stereochemistry.
Human embryonic kidney cell culture cell line 293 was acquired from the American Type Culture Collection (ATCC). The human osteosarcoma cell line, HOS, was obtained from Dr. Richard Schwartz (Michigan State University, East Lansing, MI, USA) and grown in Dulbecco’s modified Eagle’s medium (Invitrogen, Carlsbad, CA, USA) supplemented with 5% (v/v) fetal bovine serum, 5% newborn calf serum, and penicillin (50 units/mL) plus streptomycin (50 µg/mL; Quality Biological, Gaithersburg, MD, USA). The transfection vector, pNLNgoMIVR-ΔLUC was made from pNLNgoMIVR-ΔEnv.HSA by removing the HSA reporter gene and replacing it with a luciferase reporter gene between the NotI and XhoI restriction sites. To produce the new IN mutant S230N used in this study, the IN open reading frame was removed from pNLNgoMIVR-ΔENV.LUC by digestion with KpnI and SalI, and the resulting fragment was inserted between the KpnI and SalI sites of pBluescript KS+. Using that construct as the wild-type template, we prepared the following HIV-1 IN mutant S230N using the QuikChange II XL site-directed mutagenesis kit (Agilent Technologies, Santa Clara, CA, USA) protocol. The following sense oligonucleotides were used with matching cognate antisense oligonucleotides (not shown) (Integrated DNA Technologies, Coralville, IA, USA) in the mutagenesis: S230N 5′-[…]-3′. The DNA sequence of the IN mutant S230N construct was verified independently by DNA sequence determination. The mutated IN coding sequences from pBluescript KS+ were then subcloned into pNLNgoMIVR-ΔEnv.LUC (between the KpnI and SalI sites) to produce mutant HIV-1 constructs, which were also checked by DNA sequencing. […]. On the day prior to transfection, 293 cells were plated on 100 mm diameter dishes at a density of 1.5 × 10^6 cells per plate. Next, 293 cells were transfected with 16 µg of pNLNgoMIVR^-ΔLUC and 4 µg of pHCMV-g (obtained from Dr. Jane Burns, University of California, San Diego) using the calcium phosphate method. At approximately 6 h after the calcium phosphate precipitate was added, 293 cells were washed twice with phosphate-buffered saline (PBS) and incubated with fresh media for 48 h. The virus-containing supernatants were then harvested, clarified by low-speed centrifugation, filtrated, and diluted for preparation in antiviral infection assays. On the day prior to the screen, HOS cells were seeded in a 96-well luminescence cell culture plate at a density of 4000 cells in 100 µL per well. On the day of the screen for cellular cytotoxicity determination, cells were treated with compounds from a concentration range of 250 µM to 0.05 µM and then incubated at 37 °C for 48 h. On the day of the screen for antiviral activity infection assays, cells were treated with compounds from a concentration range of 5 µM to 0.0001 µM using 11 serial dilutions and then incubated at 37 °C for 3 h. After compound incorporation and activation in the cell, 100 µL of virus-stock (WT or mutant) diluted to achieve a luciferase signal between 0.2 and 1.5 Relative Luciferase Units (RLUs) was added to each well and further incubated at 37 °C for 48 h. […]

Data set [2] has as its system HIV-1 vectors bearing the S230N IN mutant. The data set is described as follows: Single-round HIV-1 replication antiviral assay, S230N IN mutant. Format: cell-based. The text has this:
To further evaluate the antiviral activities of select compounds, we determined their EC50 values against the IN mutant S230N, which has been selected in vitro against an early Merck INSTI L810,830, a prototype for naphthyridine analogs.
(§1) Human embryonic kidney cell culture cell line 293 was acquired from the American Type Culture Collection (ATCC). The human osteosarcoma cell line, HOS, was obtained from Dr. Richard Schwartz (Michigan State University, East Lansing, MI, USA) and grown in Dulbecco’s modified Eagle’s medium (Invitrogen, Carlsbad, CA, USA) supplemented with 5% (v/v) fetal bovine serum, 5% newborn calf serum, and penicillin (50 units/mL) plus streptomycin (50 µg/mL; Quality Biological, Gaithersburg, MD, USA). The transfection vector, pNLNgoMIVR-ΔLUC was made from pNLNgoMIVR-ΔEnv.HSA by removing the HSA reporter gene and replacing it with a luciferase reporter gene between the NotI and XhoI restriction sites. To produce the new IN mutant S230N used in this study, the IN open reading frame was removed from pNLNgoMIVR-ΔENV.LUC by digestion with KpnI and SalI, and the resulting fragment was inserted between the KpnI and SalI sites of pBluescript KS+. Using that construct as the wild-type template, we prepared the following HIV-1 IN mutant S230N using the QuikChange II XL site-directed mutagenesis kit (Agilent Technologies, Santa Clara, CA, USA) protocol. The following sense oligonucleotides were used with matching cognate antisense oligonucleotides (not shown) (Integrated DNA Technologies, Coralville, IA, USA) in the mutagenesis: S230N 5′-[…]-3′. The DNA sequence of the IN mutant S230N construct was verified independently by DNA sequence determination. The mutated IN coding sequences from pBluescript KS+ were then subcloned into pNLNgoMIVR-ΔEnv.LUC (between the KpnI and SalI sites) to produce mutant HIV-1 constructs, which were also checked by DNA sequencing. […]. On the day prior to transfection, 293 cells were plated on 100 mm diameter dishes at a density of 1.5 × 10^6 cells per plate. Next, 293 cells were transfected with 16 µg of pNLNgoMIVR^-ΔLUC and 4 µg of pHCMV-g (obtained from Dr. Jane Burns, University of California, San Diego) using the calcium phosphate method. At approximately 6 h after the calcium phosphate precipitate was added, 293 cells were washed twice with phosphate-buffered saline (PBS) and incubated with fresh media for 48 h. The virus-containing supernatants were then harvested, clarified by low-speed centrifugation, filtrated, and diluted for preparation in antiviral infection assays. On the day prior to the screen, HOS cells were seeded in a 96-well luminescence cell culture plate at a density of 4000 cells in 100 µL per well. On the day of the screen for cellular cytotoxicity determination, cells were treated with compounds from a concentration range of 250 µM to 0.05 µM and then incubated at 37 °C for 48 h. On the day of the screen for antiviral activity infection assays, cells were treated with compounds from a concentration range of 5 µM to 0.0001 µM using 11 serial dilutions and then incubated at 37 °C for 3 h. After compound incorporation and activation in the cell, 100 µL of virus-stock (WT or mutant) diluted to achieve a luciferase signal between 0.2 and 1.5 Relative Luciferase Units (RLUs) was added to each well and further incubated at 37 °C for 48 h. Cellular cytotoxicity was measured by using the ATP Lite Luminescence detection system and monitored by adding 50 µL of cell lysis buffer from the Luminescence ATP detection assay to each well followed by mixing at 700 rpm at room temperature for 5 min using a compact thermomixer. […]

Data set [3] is described as follows: in vitro. Format: cell-based. The conditions noted are these: human, HOS cells, 48 h; read-out: CC50, cytotoxic concentration resulting in 50% reduction in the level of ATP. As to the method: as §1, with “thermomixer. After addition of 50 µL of reconstituted Luminescence ATP detection assay reagent to all wells except for the negative control/background wells, the plates were mixed at 700 rpm at room temperature for 5 min using a compact thermomixer, incubated at room temperature for 20 min to allow time for signal development, and finally, cytotoxicity was determined using the microplate reader. Infectivity was measured by using the Steady-lite plus luminescence reporter gene assay system (PerkinElmer, Waltham, MA, USA).” for “thermomixer.”

Data set [4] has as its system HIV-1 vectors bearing the S230N IN mutant. The conditions noted are these: single round infection assays, read-out: EC50 against the S230N IN mutant; cited from earlier work.

Structures are written as SMILES. Like-named read-outs stand apart in the source and are kept apart here.

Consider `O=C(NCc1ccc(F)cc1F)c1cn2c(c(O)c1=O)C(=O)N(CCCCCO)CC2` [Compound 7d, N-(2,4-Difluorobenzyl)-9-hydroxy-2-(5-hydroxypentyl)-1,8-dioxo-1,3,4,8-tetrahydro-2H-pyrido [1,2-a]pyrazine-7-carboxamide], for which the melting point (usually the temperature of the solid-liquid transition) was 201 to 207 °C. Further, in data set [1], the “Ratio of the antiviral potencies after and before hydrogenation (WT)” value is on record as 5.0; the EC50 – broadly, the concentration giving half of the maximal effect – is 54.5 ± 3 nM. In addition, in data set [2] (EC50 of saturated 7 over EC50 of unsaturated 6, S230N IN), the “Ratio of the antiviral potencies after and before hydrogenation (S230N)” value is 6.29. For the same molecule, the EC50 in data set [2] (Human immunodeficiency virus 1, HOS, 48 h, read-out: EC50, antiviral potency, S230N IN mutant) is 97 nM.

Consider `CN1CCn2cc(C(=O)NCc3ccc(F)cc3F)c(=O)c(O)c2C1=O` [Compound 7a, N-(2,4-Difluorobenzyl)-9-hydroxy-2-methyl-1,8-dioxo-1,3,4,8-tetrahydro-2H-pyrido [1,2-a]pyrazine-7-carboxamide], for which the melting point was in the range of 247 to 252 °C. Further, in data set [1], the “Ratio of the antiviral potencies after and before hydrogenation (WT)” value came out at 1.7; the concentration giving a half-maximal response (EC50) stood at 4.6 ± 0.7 nM. Moreover, the CC50 in data set [3] is > 250000 nM.

For the molecule `C[C@@H]1CCO[C@H]2Cn3cc(C(=O)NCc4ccc(F)cc4F)c(=O)c(O)c3C(=O)N12` [DTG, Dolutegravir, reference compound], the values for the EC50 in data set [1] and in data set [4] were ~2 nM and 7.9 ± 1.3 nM, respectively.

As for `CC(C)CC(C)n1ccn2cc(C(=O)NCc3ccc(F)cc3F)c(=O)c(O)c2c1=O` (centres unmarked) [Compound 6i, N-(2,4-Difluorobenzyl)-9-hydroxy-2-(4-methylpentan-2-yl)-1,8-dioxo-1,8-dihydro-2H-pyrido [1,2-a]pyrazine-7-carboxamide], the melting point lay in the range of 199 to 203 °C. Also, the EC50 in data set [1] was 4.2 ± 1 nM. Also, in data set [3], the CC50 was > 250000 nM.
